According to publication PMC10584003 (The Journal of Clinical Endocrinology and Metabolism, 2023):
Entries after “also recorded” stand apart in the source; their conditions may differ.

Key:
[1] = system: GLP-1R variants S79L, R421W, and A449V; test: β-arrestin 2 recruitment; format: cell-based, human; settings: HEK293 cells, BRET with GRK6, LoS variants S79L
[2] = system: 26 WT-like GLP-1R variants; test: β-arrestin 2 recruitment; format: cell-based, human; settings: HEK293 cells, BRET with GRK6, 26 WT-like variants
[3] = system: GLP-1R, alanine at position 155; settings: ref [46]; cited from earlier work
[4] = system: GLP-1R, alanine at position 155; settings: ref [46]; cited from earlier work; remark: listed apart in the source
[5] = system: GLP-1R R310W; settings: top of transmembrane helix 5, agonist not given, ref [45]; cited from earlier work
[6] = system: GLP-1R variants S79L, W87R, R310W, R421W, and A449V; test: Homologous competition binding, 5 LoS variants with maintained binding; set-up: species or system human; settings: COS-7 cells
[7] = system: GLP-1R P7L, R131Q, G168S, and A316T; test: GLP-1R signaling, variants P7L, R131Q, G168S, A316T; format: cell-based, human; settings: present study, COS-7 and HEK-293 cells
[8] = system: GLP-1R R421C; settings: naturally occurring variant R421C; agonist not given; ref [42]; cited from earlier work
[9] = system: GLP-1R variants E34*, H99Qfs*83, S155F, F169Sfs*13, and T353M; test: Homologous competition binding, 5 LoS variants without binding; set-up: species or system human; settings: COS-7 cells, 125I-GLP-1(7-36)NH2, LoS variants E34*, F169Sfs*13, T353M
[10] = system: 26 WT-like GLP-1R variants; test: cAMP measurement; format: cell-based, human; settings: COS-7 cells
[11] = system: GLP-1R, alanine at position 353; settings: alanine mutation at position 353; ref [46]; cited from earlier work
[12] = system: GLP-1R variants E34*, W87R, H99Qfs*83, S155F, F169Sfs*13, R310W, and T353M; test: β-arrestin 2 recruitment; format: cell-based, human; settings: HEK293 cells, BRET with GRK6, LoS variants E34*
[13] = system: GLP-1R A316T; settings: A316T variant; agonist not given; ref [49]; cited from earlier work
[14] = system: GLP-1R A316T; settings: A316T variant; agonist not given; ref [49]; cited from earlier work; remark: listed apart in the source
[15] = system: GLP-1R, alanine at position 87; settings: ref [44]; cited from earlier work
[16] = system: GLP-1R F321S and F66L; test: cAMP signaling, variants F66L and F321S; format: cell-based, human; settings: COS-7 cells, predicted pLoF
[17] = system: GLP-1R, alanine at position 87; settings: ref [44]; cited from earlier work; remark: listed apart in the source

glucagon-like peptide 1 [GLP-1]
β-arrestin 2 recruitment, result in words [1]: maintained β-arrestin 2 recruitment | β-arrestin 2 recruitment, result in words [2]: WT-like β-arrestin 2 recruitment | β-arrestin 2 recruitment average Emax ([2]; average, ± 6.6% (SEM)): 90.2 % of WT | cAMP production, alanine at position 155, result in words [3]: affected cAMP production | GLP-1 affinity, alanine at position 155, result in words [4]: affected cAMP production and GLP-1 affinity | efficacy, R310W, result in words [5]: reduce efficacy | GLP-1 binding, result in words [6]: maintained GLP-1 binding | GLP-1R signaling, result in words [7]: WT-like GLP-1R signaling | cAMP signaling, R421C, result in words [8]: no effect on cAMP signaling | receptor binding, result in words [9]: complete loss of binding; also recorded: no GLP-1 binding | change in cAMP potency vs WT (WT-like criterion) ([10]; 26 WT-like variants, EC50 change vs WT): < 5 fold | cAMP Emax (WT-like criterion) ([10]; 26 WT-like variants, Emax of at least 50% of the WT Emax): at least 50 % of the WT Emax | cAMP production, result in words ([10]; 26 variants, compared to WT): cAMP production similar to WT GLP-1R | cAMP production, alanine at position 353, result in words [11]: altered cAMP production | β-arrestin 2 recruitment, result in words [12]: completely lost β-arrestin 2 recruitment | β-arrestin recruitment, A316T [13]: 18 % of WT | signaling and binding, A316T, result in words [14]: WT-like signaling and binding properties | cAMP signaling, alanine at position 87, result in words [15]: no altered GLP-1 binding or cAMP signaling | cAMP signaling, result in words [16]: normal cAMP signaling | GLP-1 binding, alanine at position 87, result in words [17]: no altered GLP-1 binding
